“And” between values parts separate entries of the source, which are not always exact repeats. Equal values may be shown once.
Key:
[1] = Pig skin permeation from patch; assay type: in vitro ADME
Description: (§1) The in vitro permeation of compound 1 through pig skin from saturated solution (f1) and from a patch (f2) was investigated.
For this permeation experiments Franz diffusion cells with a diffusion area of 2.54 cm^2 and an acceptor volume of approx. 100 mL were used. For the study pig leg skin with a thickness of 300-500 μm was used. The permeation experiments were performed at a temperature of 32° C. and the acceptor medium (phosphate buffer pH 6.2) was slowly stirred. A patch of 2.54 cm^2 area comprising about 5 wt % of compound 1 in a hydrophobic adhesive layer was fixed on the skin surface. The experiments were performed in triplicate (n=3) over a period of 48 hours. During this time period six samples at different time points (after 2, 4, 6, 8, 24 and 48 hours) were taken. After each individual incubation period the concentration of the test compound in the acceptor medium was analysed by HPLC at 275 nm, 20° C., 2.0 mL/min in acetonitrile/water/TFA.

human 5-HT1a receptor = molecular target: T1, human 5-HT1a receptor (Homo sapiens, UniProt P08908); experiment: [35S]GTPγS functional assay; assay type: biochemical
T1 construct: expressed in transfected cells
T1 sequence (P08908 1-422): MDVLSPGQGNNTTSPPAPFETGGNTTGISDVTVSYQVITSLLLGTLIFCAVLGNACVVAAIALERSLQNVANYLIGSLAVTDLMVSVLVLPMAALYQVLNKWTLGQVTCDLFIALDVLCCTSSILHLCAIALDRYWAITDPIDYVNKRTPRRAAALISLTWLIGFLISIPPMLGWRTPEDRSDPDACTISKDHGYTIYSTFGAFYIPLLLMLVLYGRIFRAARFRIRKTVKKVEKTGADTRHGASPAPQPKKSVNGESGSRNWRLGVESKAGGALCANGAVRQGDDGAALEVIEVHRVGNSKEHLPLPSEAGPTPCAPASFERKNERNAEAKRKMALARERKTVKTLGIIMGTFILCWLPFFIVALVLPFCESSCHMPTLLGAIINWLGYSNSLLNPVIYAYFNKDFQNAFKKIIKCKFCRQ
Description: Specific binding of [^35S]GTPγS is stimulated by activation of the stably expressed human 5-HT1a receptor in a dose-dependent way by agonists for this GPCR and is determined by measuring the radioactive label of the membrane. Non-linear regression analysis of the resulting dose-response curves yields the EC50 value in [nM] representing the half maximal concentration which is necessary to activate the receptor completely.

[2] = molecular target: T2, porcine cortical pα1 adrenergic receptor; experiment: Receptor binding assay, [3H]prazosin competition, porcine cortical membranes; settings: means of 2-8 individual experiments each done as triplicate
T2 construct: Ki pα1; other: means of 2-8 individual experiments each done as triplicate

[3] = tested on: porcine cortical pα1 adrenergic receptor; experiment: as above; settings: vs p5-HT1a
[4] = molecular target: T3, porcine striatal pD1 dopamine receptor (Sus scrofa, UniProt P50130); experiment: Receptor binding assay, [3H]SCH 23390 competition, porcine striatal membranes
T3 construct: membrane homogenates prepared from porcine striatal or cortical tissue; from tissue; host or cells: porcine striatum

[5] = molecular target: T4, porcine cortical p5-HT2 serotonin receptor (Sus scrofa, UniProt P50129); experiment: Receptor binding assay, [3H]ketanserin competition, porcine cortical membranes
T4 construct: membrane homogenates prepared from porcine striatal or cortical tissue; from tissue; host or cells: porcine cortex

[6] = molecular target: porcine cortical pα2 adrenergic receptor; experiment: Receptor binding assay, [3H]RX821002 competition, porcine cortical membranes; settings: means of 2-8 individual experiments each done as triplicate
[7] = Pig skin permeation from saturated solution; assay type: in vitro ADME; settings: pig leg skin 300-500 μm, phosphate buffer pH 6.2, 32° C., 48 hours, mean of cells 1-3
Description: as §1
For the permeation experiments horizontal cells with an acceptor and donor volume of approx. 23 mL of phosphate buffer pH 6.2 were used. The donor cells contained saturated solutions of compound 1 (2 mg/mL) in phosphate buffer pH 6.2. The experiments were performed at a temperature of 32° C. and the acceptor and donor media were slowly stirred. For the study pig leg skin with thickness of 300-500 μm were used. The experiments were performed in triplicate (n=3) over a period of 48 hours. During this time period six samples at different time points (after 2, 4, 6, 8, 24 and 48 hours) were taken. After each individual incubation period the concentration of the test compound in the acceptor medium was analysed by HPLC at 275 nm, 20° C., flow rate 2.0 mL/min in acetonitrile/water/TFA.
Evaluation: The concentration of the test compound in the acceptor medium was calculated by using an external standard solution with known concentration. Then the concentration of test compound was correlated with the incubation time by linear regression. The flux rate [μg/cm^2/h] is equivalent to the slope of the linear equation.

[8] = molecular target: T5, human dopamine receptor subtype hD4.4 (Homo sapiens, UniProt P21917); experiment: Receptor binding assay, [3H]spiperone competition, CHO cell membranes
T5 construct: expressed in transfected cells; host or cells: CHO
T5 sequence (P21917 1-419): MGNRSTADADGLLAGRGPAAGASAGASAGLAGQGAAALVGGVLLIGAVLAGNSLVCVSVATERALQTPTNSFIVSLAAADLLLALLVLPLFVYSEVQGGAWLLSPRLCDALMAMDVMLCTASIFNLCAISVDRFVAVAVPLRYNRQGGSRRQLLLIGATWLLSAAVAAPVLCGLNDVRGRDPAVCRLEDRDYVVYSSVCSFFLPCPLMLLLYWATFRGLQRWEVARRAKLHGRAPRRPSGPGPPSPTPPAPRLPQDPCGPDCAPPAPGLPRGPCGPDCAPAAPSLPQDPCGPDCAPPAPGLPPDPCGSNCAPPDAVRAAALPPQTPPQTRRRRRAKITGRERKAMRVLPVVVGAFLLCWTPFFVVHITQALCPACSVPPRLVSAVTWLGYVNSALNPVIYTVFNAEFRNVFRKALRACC
Description: Receptor binding data were determined when performing competition binding assays with membrane preparations of cloned cells (stably transfected Chinese Hamster Ovary cells (CHO)) expressing the human receptors and the following radioligands: [^3H]spiperone at the human dopamine receptor subtypes hD2long, hD2short, D3, and hD4.4. […].
Selectivity ratios were calculated by division of the Ki values of the various compounds at the respective receptors through the Ki values at the 5HT1a receptor.

[9] = means of 2-8 individual experiments each done as triplicate

T3 sequence (P50130 whole entry): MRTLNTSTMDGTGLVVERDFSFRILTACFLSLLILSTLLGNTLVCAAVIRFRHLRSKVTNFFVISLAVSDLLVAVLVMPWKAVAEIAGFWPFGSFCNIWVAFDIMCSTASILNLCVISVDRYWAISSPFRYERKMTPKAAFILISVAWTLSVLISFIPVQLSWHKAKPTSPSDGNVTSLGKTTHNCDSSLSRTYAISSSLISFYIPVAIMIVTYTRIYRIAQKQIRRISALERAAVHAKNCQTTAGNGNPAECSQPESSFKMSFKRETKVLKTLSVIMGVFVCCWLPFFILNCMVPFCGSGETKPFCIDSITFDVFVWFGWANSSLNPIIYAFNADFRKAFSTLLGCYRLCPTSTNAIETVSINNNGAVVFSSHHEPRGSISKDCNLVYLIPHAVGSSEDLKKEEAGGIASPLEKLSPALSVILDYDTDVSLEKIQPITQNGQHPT
T4 sequence (P50129 whole entry): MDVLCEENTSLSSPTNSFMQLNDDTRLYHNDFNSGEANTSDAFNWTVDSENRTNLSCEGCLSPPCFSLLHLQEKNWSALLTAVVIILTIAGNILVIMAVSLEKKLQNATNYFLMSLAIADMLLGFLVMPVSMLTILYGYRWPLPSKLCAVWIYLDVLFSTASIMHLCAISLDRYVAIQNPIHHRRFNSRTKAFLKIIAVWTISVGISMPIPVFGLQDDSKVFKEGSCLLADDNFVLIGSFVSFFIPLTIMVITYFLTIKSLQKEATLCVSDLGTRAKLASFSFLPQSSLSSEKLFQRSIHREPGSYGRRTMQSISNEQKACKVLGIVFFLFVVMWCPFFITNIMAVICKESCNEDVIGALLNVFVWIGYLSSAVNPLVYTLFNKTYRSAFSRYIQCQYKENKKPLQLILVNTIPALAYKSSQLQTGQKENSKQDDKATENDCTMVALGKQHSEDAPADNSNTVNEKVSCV

CCCN(CCc1cccs1)C1CCc2cccc(O)c2C1 (centres unmarked) [Compound 1, N-(8-Hydroxytetralin-2-yl)-N-propyl-N-[2-(2-thienyl)ethyl]amine]
penetration of skin in an in vitro skin model of transdermal penetration ([1]; in words): able to penetrate skin
average flux rate from patch ([1]; patch 2.54 cm^2, about 5 wt % compound 1 in hydrophobic adhesive layer, pig leg skin, 32° C., 48 hours): 4.0 μg/cm^2/h
Measured Flux Rate (patch) ([1]; patch, pig skin): 4.01 μg μg per cm^2/h
Extrapolated daily flux rate ([1]; per 30 cm^2 patch/24 hrs): 2.88 mg
agonist activity at the human 5-HT1a receptor (human 5-HT1a receptor; in words): full agonist activity
EC50 (human 5-HT1a receptor; mean values of 2-8 individual experiments): 0.65 to 1.9 nM and 1.9 nM
Emax (human 5-HT1a receptor; read-out: intrinsic activity [% rel. to serotonin]): 103%
Ki [2]: 170 nM
selectivity ratio pα1 [3]: 230
Ki [4, 9]: 9400 nM
selectivity ratio pD1 ([4]; vs p5-HT1a): 13 000
Ki [5, 9]: 3600 nM
selectivity ratio p5-HT2 ([5]; vs p5-HT1a): 4 900
Ki [6]: 68 nM
average flux rate from saturated solution [7]: 4.0 μg/cm^2/h
Ki [8, 9]: 190 nM
selectivity ratio hD4.4 ([8]; vs p5-HT1a): 260

— patent US8586603B2, “Aminotetraline derivatives” (priority 2009, dated 2013)
